Assay results from patent publication US12723063B2, “GIPR-agonist compounds” (Eli Lilly and Company, priority 2019, dated 2026).
*1 amine or outer side, *2 acyl side, *3 side chain or, on linkers, in order; H or OH if unused. Where a SMILES comes first, the peptide text is derived from it. Side-chain parts run from the residue outwards. [ ]: non-standard residue; d: D form. The star is where a group is joined. C20 diacid = O=C(O)CCCCCCCCCCCCCCCCCCC(=O)*; γGlu = O=C(O)[C@H](CCC(=O)[*:2])N[*:1]; αMeL = CC(C)C[C@](C)(N)C(=O)O; AEEA = NCCOCCOCC(=O)O; Aib = CC(C)(N)C(=O)O

Experiments:
Test in all cases: cAMP functional assay (HTRF) in HEK293 cells in presence of 0.1% casein
Format in all cases: cell-based
[1] = biological target: T1, human glucose-dependent insulinotropic peptide receptor (GIPR) (Homo sapiens, UniProt P48546); conditions: HEK293 cells expressing human GIPR, geometric mean, read-out: hGIPR cAMP Rel EC50 nM (SEM, n)
T1 construct: expressed in transfected cells; host or cells: HEK293
T1 sequence (P48546 22-466): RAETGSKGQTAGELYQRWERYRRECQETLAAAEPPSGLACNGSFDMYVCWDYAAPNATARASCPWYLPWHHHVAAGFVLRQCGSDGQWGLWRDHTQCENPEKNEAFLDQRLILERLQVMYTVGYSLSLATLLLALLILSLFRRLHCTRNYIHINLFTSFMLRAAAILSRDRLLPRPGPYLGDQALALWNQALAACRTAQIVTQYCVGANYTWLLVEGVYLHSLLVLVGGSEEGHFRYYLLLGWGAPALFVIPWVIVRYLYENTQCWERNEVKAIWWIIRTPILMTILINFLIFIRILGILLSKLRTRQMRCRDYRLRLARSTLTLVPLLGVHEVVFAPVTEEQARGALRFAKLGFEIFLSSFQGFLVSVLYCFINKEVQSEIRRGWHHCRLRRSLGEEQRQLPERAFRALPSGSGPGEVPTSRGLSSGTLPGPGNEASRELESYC

[2] = biological target: T2, human glucagon receptor (GcgR) (Homo sapiens, UniProt P47871); conditions: HEK293 cells expressing human GcgR, geometric mean, read-out: hGcgR cAMP Rel EC50 nM (SEM, n)
T2 construct: expressed in transfected cells; host or cells: HEK293

[3] = biological target: T3, human GLP-1 receptor (GLP-1R) (Homo sapiens, UniProt P43220); conditions: HEK293 cells expressing human GLP-1R, geometric mean, read-out: hGLP1R cAMP Rel EC50 nM (SEM, n)
T3 construct: expressed in transfected cells; host or cells: HEK293
T3 sequence (P43220 24-463): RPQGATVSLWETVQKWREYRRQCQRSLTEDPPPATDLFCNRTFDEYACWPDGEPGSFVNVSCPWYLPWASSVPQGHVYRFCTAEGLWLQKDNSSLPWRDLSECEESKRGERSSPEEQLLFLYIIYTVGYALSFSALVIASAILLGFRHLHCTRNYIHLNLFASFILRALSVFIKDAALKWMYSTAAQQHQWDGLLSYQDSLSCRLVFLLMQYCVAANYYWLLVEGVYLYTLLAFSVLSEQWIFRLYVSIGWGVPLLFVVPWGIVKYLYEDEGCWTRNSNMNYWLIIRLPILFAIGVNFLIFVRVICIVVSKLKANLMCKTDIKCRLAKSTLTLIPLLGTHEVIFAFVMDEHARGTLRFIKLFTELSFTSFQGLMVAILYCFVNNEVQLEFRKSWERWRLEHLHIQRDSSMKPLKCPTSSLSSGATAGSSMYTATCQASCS

T2 sequence (P47871 26-477): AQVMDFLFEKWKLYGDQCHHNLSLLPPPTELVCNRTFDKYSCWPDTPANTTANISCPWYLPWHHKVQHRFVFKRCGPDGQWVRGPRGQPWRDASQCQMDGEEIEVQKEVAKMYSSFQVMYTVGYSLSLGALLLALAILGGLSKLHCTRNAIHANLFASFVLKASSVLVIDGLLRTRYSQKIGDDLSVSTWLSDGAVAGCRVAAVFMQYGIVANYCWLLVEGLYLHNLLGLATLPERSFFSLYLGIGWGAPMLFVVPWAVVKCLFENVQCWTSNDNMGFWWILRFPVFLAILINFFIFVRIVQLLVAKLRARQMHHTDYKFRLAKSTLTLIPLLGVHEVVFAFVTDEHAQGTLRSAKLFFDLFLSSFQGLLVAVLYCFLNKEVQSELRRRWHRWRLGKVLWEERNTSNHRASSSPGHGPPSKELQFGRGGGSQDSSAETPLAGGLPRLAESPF

SMILES | EC50 [1] | EC50 [2] | EC50 [3]
CC[C@H](C)[C@H](NC(=O)[C@H](Cc1ccccc1)NC(=O)[C@@H](NC(=O)CNC(=O)[C@H](CCC(=O)O)NC(=O)C(C)(C)NC(=O)[C@@H](N)Cc1ccc(O)cc1)[C@@H](C)O)C(=O)N[C@@H](CO)C(=O)N[C@@H](CC(=O)O)C(=O)N[C@@H](Cc1ccc(O)cc1)C(=O)N[C@@H](CO)C(=O)N[C@H](C(=O)N[C@@](C)(CC(C)C)C(=O)N[C@@H](CC(C)C)C(=O)N[C@@H](CC(=O)O)C(=O)N[C@@H](CCCCN)C(=O)N[C@@H](CCCCNC(=O)COCCOCCNC(=O)COCCOCCNC(=O)CC[C@H](NC(=O)CCCCCCCCCCCCCCCCCCC(=O)O)C(=O)O)C(=O)N[C@@H](Cc1c[nH]cn1)C(=O)N[C@@H](CCC(N)=O)C(=O)NC(C)(C)C(=O)N[C@@H](CC(=O)O)C(=O)N[C@@H](Cc1ccccc1)C(=O)N[C@H](C(=O)N[C@@H](CCC(=O)O)C(=O)N[C@@H](Cc1c[nH]c2ccccc12)C(=O)N[C@@H](CC(C)C)C(=O)N[C@@H](CC(C)C)C(=O)N[C@@H](CCC(=O)O)C(=O)N[C@H](C(=O)NCC(=O)N1CCC[C@H]1C(=O)N[C@@H](CO)C(=O)N[C@@H](CO)C(=O)NCC(=O)N[C@@H](C)C(=O)N1CCC[C@H]1C(=O)N1CCC[C@H]1C(=O)N1CCC[C@H]1C(=O)N[C@@H](CO)C(N)=O)[C@@H](C)O)C(C)C)[C@@H](C)CC [Example 71] (H-Y[Aib]EGTFISDYSI[αMeL]LDKK([AEEA-AEEA-γGlu-C20 diacid])HQ[Aib]DFVEWLLETGPSSGAPPPS-NH2) | 0.0721 nM | 581 nM | > 5000 nM
CC[C@H](C)[C@H](NC(=O)[C@H](Cc1ccccc1)NC(=O)[C@@H](NC(=O)CNC(=O)[C@H](CCC(=O)O)NC(=O)C(C)(C)NC(=O)[C@@H](N)Cc1ccc(O)cc1)[C@@H](C)O)C(=O)N[C@@H](CO)C(=O)N[C@@H](CC(=O)O)C(=O)N[C@@H](Cc1ccc(O)cc1)C(=O)N[C@@H](CO)C(=O)N[C@H](C(=O)N[C@@](C)(CC(C)C)C(=O)N[C@@H](CC(C)C)C(=O)N[C@@H](CC(=O)O)C(=O)N[C@@H](CCCCN)C(=O)N[C@@H](CCCCNC(=O)COCCOCCNC(=O)COCCOCCNC(=O)CC[C@H](NC(=O)CCCCCCCCCCCCCCCCCCC(=O)O)C(=O)O)C(=O)N[C@@H](Cc1c[nH]cn1)C(=O)N[C@@H](CCC(N)=O)C(=O)NC(C)(C)C(=O)N[C@@H](CCC(=O)O)C(=O)N[C@@H](Cc1ccccc1)C(=O)N[C@H](C(=O)N[C@@H](CCC(=O)O)C(=O)N[C@@H](Cc1ccncc1)C(=O)N[C@@H](CC(C)C)C(=O)N[C@@H](CC(C)C)C(=O)N[C@@H](C)C(=O)NCC(=O)NCC(=O)N1CCC[C@H]1C(=O)N[C@@H](CO)C(=O)N[C@@H](CO)C(=O)NCC(=O)N[C@@H](C)C(=O)N1CCC[C@H]1C(=O)N1CCC[C@H]1C(=O)N1CCC[C@H]1C(=O)N[C@@H](CO)C(N)=O)C(C)C)[C@@H](C)CC [Example 52] | 0.0194 nM | 337 nM | > 5000 nM
